System: NBD1/3D
Assay: Aggregation analysis using differential static light scattering (DSLS), NBD1 thermal stability
Type: binding, Human
Settings: ΔTagg versus DMSO control; compound at 100 μM
Summary of the method: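 Purified NBD1 at 0.2 mg/ml in S200 buffer (pH 7.6, 2 mM ATP, 5 mM MgCl2, 1% glycerol) was heated with compound at 1 °C/min to 70 °C. Tagg taken from the light-scattering curve inflection point; ΔTagg = compound Tagg minus mean DMSO control Tagg.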

SMILES	DSLS NBD1/3D Human Stability delta-T (° C.) @ 100 (μM)
O=C(O)CCc1cc(F)cc(C(O)c2c[nH]c(-c3cc(Oc4c(F)cc5[nH]ccc5c4F)ccc3F)n2)c1 (stereo not shown) [Example 178, 3-(3-((2-(5-((4,6-difluoro-1H-indol-5-yl)oxy)-2-fluorophenyl)-1H-imidazol-4-yl)(hydroxy)methyl)-5-fluorophenyl)propanoic acid]	B (B: 5-10° C.)
CC(CC#N)(c1cccc(CCC(=O)O)c1)c1cnc(-c2cc(Oc3c(F)cc4[nH]ccc4c3F)ccc2F)[nH]1 (stereo not shown) [Example 77, 3-(3-(1-cyano-2-(2-(5-((4,6-difluoro-1H-indol-5-yl)oxy)-2-fluorophenyl)-1H-imidazol-5-yl)propan-2-yl)phenyl)propanoic acid]	B (B: 5-10° C.)
O=C(O)CCc1cccc(Cc2cnc(-c3cc(Oc4c(F)cc5[nH]ccc5c4F)ccc3F)[nH]2)c1Cl [Example 110, 3-(2-chloro-3-((2-(5-((4,6-difluoro-1H-indol-5-yl)oxy)-2-fluorophenyl)-1H-imidazol-5-yl)methyl)phenyl)propanoic acid]	B (B: 5-10° C.)
CC(=O)NS(=O)(=O)Cc1cccc(C(C)(O)c2cnc(-c3cccc(Oc4c(F)cc5[nH]ccc5c4F)c3)[nH]2)c1 (stereo not shown) [Example 212, N-((3-(1-(2-(3-((4,6-Difluoro-1H-indol-5-yl)oxy)phenyl)-1H-imidazol-5-yl)-1-hydroxyethyl)benzyl)sulfonyl)acetamide]	B (B: 5-10° C.)
NCc1c(CCC(=O)O)cccc1Cc1cnc(-c2cc(Oc3c(F)cc4[nH]ccc4c3F)ccc2F)[nH]1 [Example 141, 3-(2-(Aminomethyl)-3-((2-(5-((4,6-difluoro-1H-indol-5-yl)oxy)-2-fluorophenyl)-1H-imidazol-5-yl)methyl)phenyl)propanoic acid]	C (C: ≤5° C.)
COCCOC(C)(c1cccc(CCC(=O)O)c1)c1cnc(-c2cc(Oc3c(F)c(F)c4[nH]ccc4c3C)ccc2F)[nH]1 (stereo not shown) [Example 234, 3-(3-(1-(2-(5-((6,7-difluoro-4-methyl-1H-indol-5-yl)oxy)-2-fluorophenyl)-1H-imidazol-5-yl)-1-(2-methoxyethoxy)ethyl)phenyl) propanoic acid]	B (B: 5-10° C.)
Cc1c(Oc2cccc(-c3ncc(C(O)c4cccc(C5CC5C(=O)O)c4)[nH]3)c2)ccc2[nH]ccc12 (stereo not shown) [Example 176, 2-(3-(hydroxy(2-(3-((4-methyl-1H-indol-5-yl)oxy)phenyl)-1H-imidazol-5-yl)methyl)phenyl)cyclopropane-1-carboxylic acid]	B (B: 5-10° C.)
O=C(O)CCCCCc1cccc(Cc2nnc(-c3cccc(Oc4ccc5[nH]ccc5c4)c3)[nH]2)c1 [Example 255, 6-(3-((5-(3-((1H-indol-5-yl)oxy)phenyl)-4H-1,2,4-triazol-3-yl)methyl)phenyl)hexanoic acid]	C (C: ≤5° C.)
O=C(O)CCc1cccc(C2(c3cnc(-c4cc(Oc5c(F)cc6[nH]ccc6c5F)ccc4F)[nH]3)OCCO2)c1 [Example 229, 3-(3-(2-(2-(5-((4,6-difluoro-1H-indol-5-yl)oxy)-2-fluorophenyl)-1H-imidazol-5-yl)-1,3-dioxolan-2-yl)phenyl)propanoic acid]	A (A: T ≥ 10° C.)
CC(O)(c1cccc(CCC(=O)O)c1)c1cnc(-c2cc(Oc3c(F)cc4[nH]ccc4c3CC(F)(F)F)ccc2F)[nH]1 (stereo not shown) [Example 190, 3-(3-(1-(2-(2-fluoro-5-((6-fluoro-4-(2,2,2-trifluoroethyl)-1H-indol-5-yl)oxy)phenyl)-1H-imidazol-5-yl)-1-hydroxyethyl)phenyl) propanoic acid]	B (B: 5-10° C.)
COc1cc(F)c(-c2ncc(C(C)(O)c3cccc(CCC(=O)O)c3)[nH]2)cc1Oc1c(F)cc2[nH]ccc2c1C (stereo not shown) [Example 281, 3-(3-(1-(2-(2-fluoro-5-((6-fluoro-4-methyl-1H-indol-5-yl)oxy)-4-methoxyphenyl)-1H-imidazol-5-yl)-1-hydroxyethyl)phenyl) propanoic acid]	B (B: 5-10° C.)
CS(=O)(=O)c1c(Oc2cccc(-c3ncn(Cc4cccc(CCC(N)=O)c4)n3)c2)c(F)cc2[nH]ccc12 [Example 34, 3-(3-((3-(3-((6-Fluoro-4-(methylsulfonyl)-1H-indol-5-yl)oxy)phenyl)-1H-1,2,4-triazol-1-yl)methyl)phenyl)propanamide]	B (B: 5-10° C.)
Cn1nc(-c2cccc(Oc3c(F)cc4[nH]ccc4c3S(C)(=O)=O)c2)nc1Cc1cccc(CCC(=O)O)c1 [Example 31, 3-(3-((3-(3-((6-Fluoro-4-(methylsulfonyl)-1H-indol-5-yl)oxy)phenyl)-1-methyl-1H-1,2,4-triazol-5-yl)methyl)phenyl)propanoic acid]	B (B: 5-10° C.)
Cc1c(Oc2ccc(F)c(-c3nnc(Cc4ccc5c(c4)CC(C(=O)O)C5)[nH]3)c2)c(F)cc2[nH]ccc12 (stereo not shown) [Example 245, 5-((5-(2-Fluoro-5-((6-fluoro-4-methyl-1H-indol-5-yl)oxy)phenyl)-4H-1,2,4-triazol-3-yl)methyl)-2,3-dihydro-1H-indene-2-carboxylic acid]	C (C: ≤5° C.)
CC(C#N)(c1cccc(CCC(=O)O)c1)c1cnc(-c2cc(Oc3c(F)c(F)c4[nH]ccc4c3C3CC3)ccc2F)[nH]1 (stereo not shown) [Example 53, 3-(3-(1-cyano-1-(2-(5-((4-cyclopropyl-6,7-difluoro-1H-indol-5-yl)oxy)-2-fluorophenyl)-1H-imidazol-5-yl)ethyl)phenyl)propanoic acid]	B (B: 5-10° C.)
O=C(O)CCCCc1cccc(Cc2nnc(-c3cccc(Oc4cc5cc[nH]c5cn4)c3)[nH]2)c1 [Example 257, 5-(3-((5-(3-((1H-pyrrolo[2,3-c]pyridin-5-yl)oxy)phenyl)-4H-1,2,4-triazol-3-yl)methyl)phenyl)pentanoic acid]	C (C: ≤5° C.)
NC(=O)CCc1cccc(Cc2c[nH]c(-c3cc(Oc4c(F)cc5[nH]ccc5c4F)ccc3F)n2)c1 [Example 127, 3-(3-((2-(5-((4,6-Difluoro-1H-indol-5-yl)oxy)-2-fluorophenyl)-1H-imidazol-4-yl)methyl)phenyl)propanamide]	C (C: ≤5° C.)
O=C(O)CCc1cccc(Cc2nnc(-c3cccc(Oc4c(F)cc5[nH]ccc5c4[S+]([O-])C(F)F)c3)[nH]2)c1 (stereo not shown) [Example 25, 3-(3-((5-(3-((4-((Difluoromethyl)sulfinyl)-6-fluoro-1H-indol-5-yl)oxy)phenyl)-4H-1,2,4-triazol-3-yl)methyl)phenyl)propanoic acid]	C (C: ≤5° C.)
Cc1c(Oc2ccc(F)c(-c3ncc(C(C)c4cccc([C@@H]5C[C@@H]5C(=O)O)c4F)[nH]3)c2)c(F)cc2[nH]ccc12 (single isomer, unassigned) [Example 138C, cis-2-(2-fluoro-3-(1-(2-(2-fluoro-5-((6-fluoro-4-methyl-1H-indol-5-yl)oxy)phenyl)-1H-imidazol-5-yl)ethyl)phenyl)cyclopropane-1-carboxylic acid]	C (C: ≤5° C.)
